Reference: patent US20260216139A1, “METHOD FOR TREATING NEUROLOGICAL DISEASES THROUGH GLIAL PRUNING REGULATION” (Fred Hutchinson Cancer Center, priority 2022, published 2026)

Tested on: C. elegans
Test: Effects of exposure to drugs on glial pruning: number of engulfed AFD neuron fragments in AMsh glia
Format: in vivo
Conditions: for suppression of defects, judged by the number of engulfed fragments in glia: pdr-1 single or pdr-1; for number of engulfed fragments of neuron within glia: pdr-1 mutant animals, upon drug exposure
Method: C. elegans were cultured as known to one of skill in the art. Bristol N2 strain was used as wild type. For all experiments, animals were raised at 20° C. for at least two generations without starvation, picked as L4 larvae onto fresh plate, and assayed 1 day later unless otherwise noted. For analysis of glial engulfment, animals were crossed to the strain dnals13, an integrated transgene bearing gcy-23: GFP recombineered fosmid outcrossed to Bristol N2 four times. To control environmental variations, worms were raised from egg-lay in a humidity and temperature-controlled environment until imaging. Worms were staged at the L4 stage using vulval anatomy. Day 1 adult animals were staged at the L4 stage and then grown for approximately 24 more hours (unless otherwise stated) in the controlled environment. Worms were imaged and glial engulfment was analyzed as described in the methods below.
Worms were immobilized with 40 mM sodium azide. Images were collected on a Deltavision® Elite RoHS wide-field deconvolution system with Ultimate Focus® (GE), a PlanApo 60×/1.42 NA or OLY 100×/1.40 NA oil-immersion objective, and a DV Elite CMOS Camera. Images of the AFD puncta in the region of the AMsh were taken at 100× using FITC with 100% transmission and 0.0405 ms exposure with a reference image taken at 5% POL in the middle of the sample. For worms expressing an extrachromosomal array tagged with mCherry, images were also taken using an A594 filter with 0.02 ms exposure to ensure expression of the array in the cell of interest. Images were then deconvolved and cropped to 1024×1024 in the area of interest. Next, images were processed using FIJI®. All images were converted to 8-bit and brightness and contrast were set with a minimum of 0 and a maximum of 50. Next, a rectangle is drawn around the region of the AMsh adjacent to, but not including, the AFD cell body and excluding any area along the AFD process. Next, the image is cropped to this region, and the tool “3D Objects Counter” is run with the following settings: threshold=35; size min.=5 max.=7225848; exclude objects side. This number of puncta is then verified by eye and recorded.
Data and statistics were either graphed and analyzed using Prism9 or by using R. Statistical analysis in R was conducted using the open-source data visualization package ggplot2. Data is represented in a boxplot with each point representing the number of puncta engulfed within the cell body of one AMsh glia in a single worm. Dots represent the biological replicate in which the individual worm was imaged unless otherwise specified to represent genotype.
4 mL standard C. elegans nematode growth medium (NGM) was aliquoted into 35 mm Petri dishes and stored at 4 degrees Celsius. Plates were warmed to room temperature and seeded with 100 μL of OP50 and dried overnight. Plates were then spotted with 100 μL of diluted SP600125 (in DMSO), Apocynin (in DMSO), or EHop-016 (in DMSO) for a final concentration of 0.5% or 1% DMSO (as labeled) and a final concentration of the treatment drug of 50 μM (unless otherwise specified). Spot treatment was allowed to dry before L1 staged C. elegans were transferred onto the plate. Worms were then imaged approximately 2 days later. Worms were staged at this time by vulval anatomy, body size, and the presence or absence of eggs. […] At this time, worms were imaged, and glial engulfment levels were analyzed.

SMILES	suppression of defects, judged by the number of engulfed fragments in glia (pink-1 double mutant animals)	number of engulfed fragments of neuron within glia	other results
COc1cc(C(C)=O)ccc1O (racemic) [Apocynin, acetovanillone]	suppress		
CC(C)C[C@@H](C=O)NC(=O)[C@H](CC(C)C)NC(=O)[C@H](CC(C)C)NC(=O)OCc1ccccc1 (racemic) [MG-132]		reduction	
CO[C@H]1C[C@@H]2CC[C@@H](C)[C@@](O)(O2)C(=O)C(=O)N2CCCC[C@H]2C(=O)O[C@H]([C@H](C)C[C@@H]2CC[C@@H](O)[C@H](OC)C2)CC(=O)[C@H](C)/C=C(\C)[C@@H](O)[C@@H](OC)C(=O)[C@H](C)C[C@H](C)/C=C/C=C/C=C/1C [rapamycin]		no change	
CCn1c2ccccc2c2cc(Nc3ccnc(NCCCN4CCOCC4)n3)ccc21 (racemic) [EHOP-016]	did not suppress		pruning (pdr-1, pink-1 double mutant animals, 10 μM): increased; pdr-1 defect (pruning) (pdr-1 lesion animals (FIG. 21C right), 10 μM): increased; pruning (wild type animals, 10 μM): increase
O=[N+]([O-])c1ccc(O)c([N+](=O)[O-])c1 [DNP]		no change	
